Literature values, collected in patent publication US7109169B2, “Method for treating heart failure by inhibiting the sarcolemmal sodium/calcium exchange” (priority 2002, dated 2006).

In the case of N=C(N)SCCc1ccc(OCc2ccc([N+](=O)[O-])cc2)cc1 [KB-R7943], the “mode of the Na/Ca exchanger inhibited” value (Na/Ca exchanger) is given as “predominantly the Ca-entry mode”, the specificity of action (Na/Ca exchanger; inhibits a variety of ion channels in the cardiac membrane) is given as “completely non-specific” and the “effect on cardiac contractility” value (cardiac contractility) is given as “no effect”.
